# Measured values reported in patent US20220315591A1, “NEW EGFR INHIBITORS” (Hoffmann-La Roche Inc., priority 2019, published 2022).
# Biological target: T1, EGFR TMLRCS (BaF3-TMLRCS cell line) (Homo sapiens, UniProt P00533, C797S/L858R/T790M)
# T1 construct: host or cells: Ba/F3 (BaF3-TMLRCS), puromycin-selected
# Test: HTRF Phospho EGFR TMLRCS assay (cellular)
# Format: cell-based
# Settings: BaF3-TMLRCS cells, 4 hours incubation
# Protocol: HTRF Phospho EGFR TMLRCS Assay (Cellular)
# BaF3-TMLRCS cell line were obtained from Crownbio (San Diego, Calif., USA). Cells were maintained at 37° C., 5% CO2 in RPMI ATCC (Gibco 31870)+2 mM Glutamine+0.5 μg/ml Puromycin supplemented with 10% fetal bovine serum (FBS) (Gibco).
# Cells are transferred as above to Greiner Bio-One, Nr. 784-08 micro-titerplate at 20000 cells/well in 12.5 μl of growth medium/well after the plates had been pre-filled with 12.5 nl of DMSO solutions of the to be tested compounds (in dose response) or DMSO only. After spinning the plates at 300×g for 30 seconds the cells were incubated for 4 hours at 37 C, 5% CO2, 95% humidity. The cells were lysed by adding to the compound mix 4 μl/well of the supplemented lysis buffer (Cis-bio, Phospho-EGFR HTRF kit, 64EG1PEH), followed by incubation for 30 min at room temperature with shaking (400 rpm). The plates were then frozen and stored overnight at −80 C. On the next day and after thawing the plates, 4 μl of a mixture of anti-Phospho-EGFR Cryptate and of anti-Phospho-EGFR-d2 antibody solutions prepared in the supplied detection buffer was added to each well. The lidded plates were then incubated for 4 h at room temperature before reading the fluorescence emission at 616 and 665 nm using an Envision reader (Perkin Elmer). Data was analyzed in similar fashion as above using the normalized ratio of the 665 to 616 signals multiplied by 10000.
# T1 sequence (P00533 25-1210 T790M/C797S/L858R): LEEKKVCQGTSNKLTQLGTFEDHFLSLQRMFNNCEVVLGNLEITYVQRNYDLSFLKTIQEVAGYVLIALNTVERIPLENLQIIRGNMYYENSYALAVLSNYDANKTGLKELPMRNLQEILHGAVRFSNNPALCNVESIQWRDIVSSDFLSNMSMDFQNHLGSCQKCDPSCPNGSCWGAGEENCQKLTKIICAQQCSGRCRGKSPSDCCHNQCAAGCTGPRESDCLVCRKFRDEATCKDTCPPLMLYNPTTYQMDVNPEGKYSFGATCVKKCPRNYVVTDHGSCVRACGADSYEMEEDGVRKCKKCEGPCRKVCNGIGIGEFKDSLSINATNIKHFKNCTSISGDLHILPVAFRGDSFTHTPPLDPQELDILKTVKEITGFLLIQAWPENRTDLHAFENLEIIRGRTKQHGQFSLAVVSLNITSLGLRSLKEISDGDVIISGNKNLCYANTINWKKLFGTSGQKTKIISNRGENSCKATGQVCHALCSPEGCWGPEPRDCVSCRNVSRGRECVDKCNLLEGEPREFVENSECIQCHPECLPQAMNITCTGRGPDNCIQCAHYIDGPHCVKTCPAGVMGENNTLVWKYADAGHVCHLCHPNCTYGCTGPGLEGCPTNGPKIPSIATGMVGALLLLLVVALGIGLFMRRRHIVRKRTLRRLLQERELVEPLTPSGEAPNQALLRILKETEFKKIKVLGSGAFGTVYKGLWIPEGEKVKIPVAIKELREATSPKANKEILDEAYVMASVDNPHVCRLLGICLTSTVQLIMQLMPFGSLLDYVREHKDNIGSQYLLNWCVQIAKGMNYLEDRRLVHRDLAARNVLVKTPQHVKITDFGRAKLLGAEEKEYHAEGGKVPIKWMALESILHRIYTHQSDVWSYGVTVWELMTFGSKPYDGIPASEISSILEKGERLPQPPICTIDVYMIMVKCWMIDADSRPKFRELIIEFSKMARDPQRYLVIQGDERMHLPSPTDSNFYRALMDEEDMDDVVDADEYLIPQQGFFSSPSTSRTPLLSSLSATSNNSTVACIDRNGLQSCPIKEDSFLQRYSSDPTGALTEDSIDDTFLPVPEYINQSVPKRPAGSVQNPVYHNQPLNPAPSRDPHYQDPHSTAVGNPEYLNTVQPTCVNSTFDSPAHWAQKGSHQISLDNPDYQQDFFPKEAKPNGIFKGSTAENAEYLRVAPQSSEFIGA
row,Compound,IC50
1,"O=C(Nc1nccs1)C(c1ncn2c1C[C@@H](F)C2)N1Cc2c(cc(C#Cc3ccc(CN4CCC(CO)CC4)cc3)cc2C(F)(F)F)C1=O (mixture of isomers) [Example 6, (2RS)-2-[(6R)-6-Fluoro-6,7-dihydro-5H-pyrrolo[1,2-c]imidazol-1-yl]-2-[6-[2-[4-[[4-(hydroxymethyl)-1-piperidyl]methyl]phenyl]ethynyl]-1-oxo-4-(trifluoromethyl)isoindolin-2-yl]-N-thiazol-2-yl-acetamide]",1 nM
2,"O=C(Nc1nccs1)C(c1ncn2c1C[C@@H](F)C2)N1Cc2c(cc(C#Cc3ccc(CN4CCC(CO)CC4)cc3)cc2C(F)F)C1=O (mixture of isomers) [Example 10, (2RS)-2-[4-(Difluoromethyl)-6-[2-[4-[[4-(hydroxymethyl)-1-piperidyl]methyl]phenyl]ethynyl]-1-oxo-isoindolin-2-yl]-2-[(6R)-6-fluoro-6,7-dihydro-5H-pyrrolo[1,2-c]imidazol-1-yl]-N-thiazol-2-yl-acetamide]",2 nM
3,"CCN1CCC(c2ccc(-c3cc4c(c(C(F)(F)F)c3)CN(C(C(=O)Nc3nccs3)c3ncn5c3CCC5)C4=O)cc2)CC1 (racemic) [Example 2, (2RS)-2-(6,7-Dihydro-5H-pyrrolo[1,2-c]imidazol-1-yl)-2-[6-[4-(1-ethyl-4-piperidyl)phenyl]-1-oxo-4-(trifluoromethyl)isoindolin-2-yl]-N-thiazol-2-yl-acetamide]",20 nM
4,"O=C(Nc1nccs1)C(c1ncn2c1CCC2)N1Cc2c(cc(C#Cc3ccc(CN4CCC(CO)CC4)cc3)cc2C(F)(F)F)C1=O (racemic) [Example 3, (2RS)-2-(6,7-Dihydro-5H-pyrrolo[1,2-c]imidazol-1-yl)-2-[6-[2-[4-[[4-(hydroxymethyl)-1-piperidyl]methyl]phenyl]ethynyl]-1-oxo-4-(trifluoromethyl)isoindolin-2-yl]-N-thiazol-2-yl-acetamide]",1 nM
5,"CCN1CCC(c2ccc(-c3cc4c(c(C(F)F)c3)CN(C(C(=O)Nc3nccs3)c3ncn5c3CCC5)C4=O)cc2)CC1 (racemic) [Example 4, (2RS)-2-[4-(Difluoromethyl)-6-[4-(1-ethyl-4-piperidyl)phenyl]-1-oxo-isoindolin-2-yl]-2-(6,7-dihydro-5H-pyrrolo[1,2-c]imidazol-1-yl)-N-thiazol-2-yl-acetamide]",11 nM

# The remaining molecules from weak to strong by IC50, led by results:
row,IC50,Compound
1,18 nM,"CCN1CCC(c2ccc(-c3cc4c(c(C(F)F)c3)CN(C(C(=O)Nc3nccs3)c3ncn5c3CCC5)C4=O)cc2)[C@@H](F)C1 (mixture of isomers) [Example 8, (2RS)-2-[4-(Difluoromethyl)-6-[4-1(3R,4R)-1-ethyl-3-fluoro-4-piperidyl]phenyl]-1-oxo-isoindolin-2-yl]-2-(6,7-dihydro-5H-pyrrolo[1,2-c]imidazol-1-yl)-N-thiazol-2-yl-acetamide and (2RS)-2-[4-(difluoromethyl)-6-[4-1(3S,4S)-1-ethyl-3-fluoro-4-piperidyl]phenyl]-1-oxo-isoindolin-2-yl]-2-(6,7-dihydro-5H-pyrrolo[1,2-c]imidazol-1-yl)-N-thiazol-2-yl-acetamide]"
2,16 nM,"CCN1CCC(c2ccc(-c3cc4c(c(C(F)F)c3)CN(C(C(=O)Nc3nccs3)c3ncn5c3C[C@@H](F)C5)C4=O)cc2)CC1 (mixture of isomers) [Example 7, (2RS)-2-[4-(Difluoromethyl)-6-[4-(1-ethyl-4-piperidyl)phenyl]-1-oxo-isoindolin-2-yl]-2-[(6R)-6-fluoro-6,7-dihydro-5H-pyrrolo[1,2-c]imidazol-1-yl]-N-thiazol-2-yl-acetamide]"
3,3 nM,"O=C(Nc1nccs1)C(c1ncn2c1C[C@@H](F)C2)N1Cc2c(cc(C#Cc3ccc(CN4CC5(CC(O)C5)C4)cc3)cc2C(F)(F)F)C1=O (mixture of isomers) [Example 9, (2RS)-2-[(6R)-6-Fluoro-6,7-dihydro-5H-pyrrolo[1,2-c]imidazol-1-yl]-2-[6-[2-[4-[(6-hydroxy-2-azaspiro[3.3]heptan-2-yl)methyl]phenyl]ethynyl]-1-oxo-4-(trifluoromethyl)isoindolin-2-yl]-N-thiazol-2-yl-acetamide]"
4,3 nM,"O=C(Nc1nccs1)C(c1ncn2c1CCC2)N1Cc2c(cc(C#Cc3ccc(CN4CCC(CO)CC4)cc3)cc2C(F)F)C1=O (racemic) [Example 5, (2RS)-2-[4-(Difluoromethyl)-6-[2-[4-[[4-(hydroxymethyl)-1-piperidyl]methyl]phenyl]ethynyl]-1-oxo-isoindolin-2-yl]-2-(6,7-dihydro-5H-pyrrolo[1,2-c]imidazol-1-yl)-N-thiazol-2-yl-acetamide]"
5,2 nM,"O=C(Nc1nccs1)C(c1ncn2c1C[C@@H](F)C2)N1Cc2c(cc(C#Cc3ccc(CN4CCCC(O)CC4)cc3)cc2C(F)(F)F)C1=O (mixture of isomers) [Example 11, (2RS)-2-[(6R)-6-fluoro-6,7-dihydro-5H-pyrrolo[1,2-c]imidazol-1-yl]-2-[6-[2-[4-[[(4RS)-4-hydroxyazepan-1-yl]methyl]phenyl]ethynyl]-1-oxo-4-(trifluoromethyl)isoindolin-2-yl]-N-thiazol-2-yl-acetamide]"
